In general, IC50 refers to the midpoint of a concentration-inhibition curve. One may read the inhibition as how much of the control response was suppressed.

The test system of assay [1] is VEGF induced increases in intracellular calcium levels in HUVEC (human umbilical vein endothelial cells). Kind of assay: VEGF Stimulated Ca++ signal assay (FLIPR). The assay is classed as cell-based. Conditions: VEGF 5 ng/mL; for IC50: 0.01 to 10.0 μM; for inhibition at 10 µM: 30 min pre-incubation. Here is the method:
VEGF Stimulated Ca^++ Signal in vitro
Automated FLIPR (Fluorometric Imaging Plate Reader) technology was used to screen for inhibitors of VEGF induced increases in intracellular calcium levels in fluorescent dye loaded endothelial cells. HUVEC (human umbilical vein endothelial cells) (Clonetics) were seeded in 96-well fibronectin coated black-walled plates overnight @ 37° C./5%CO2. Cells were loaded with calcium indicator Fluo-4 for 45 minutes at 37° C. Cells were washed 4 times (Original Cell Wash, Labsystems) to remove extracellular dye. Test compounds were reconstituted in 100% DMSO and added to the cells to give a final DMSO concentration of 0.1%. For screening, cells were pre-incubated with test agents for 30 minutes, at a single concentration (10 μM) or at concentrations ranging from 0.01 to 10.0 μM followed by VEGF stimulation (5 ng/mL). Changes in fluorescence at 516 nm were measured simultaneously in all 96 wells using a cooled CCD camera. Data were generated by determining max-min fluorescence levels for unstimulated, stimulated, and drug treated samples. IC50 values for test compounds were calculated from % inhibition of VEGF stimulated responses in the absence of inhibitor.

Assay [2] has as its target T1, cytoplasmic domain of the human VEGF receptor (VEGFR-2) (Homo sapiens, UniProt P35968).
T1 construct: The cytoplasmic domain of the human VEGF receptor (VEGFR-2) was expressed as a Histidine-tagged fusion protein; His tag (Histidine-tagged fusion); made in house; host or cells: insect cells (engineered baculovirus)
Kind of assay: KDR Assay. It is filed as biochemical. Particulars: His-VEGFR-2, 3.6 μM ATP, poly-Glu-Tyr (4:1). Here is the method: The cytoplasmic domain of the human VEGF receptor (VEGFR-2) was expressed as a Histidine-tagged fusion protein following infection of insect cells using an engineered baculovirus. His-VEGFR-2 was purified to homogeneity, as determined by SDS-PAGE, using nickel resin chromatography. Kinase assays were performed in 96 well microtiter plates that were coated overnight with 30 μg of poly-Glu-Tyr (4:1) in 10 mM Phosphate Buffered Saline (PBS), pH 7.2-7.4. The plates were incubated with 1% BSA and then washed four times with PBS prior to starting the reaction. Reactions were carried out in 120 μL reaction volumes containing 3.6 μM ATP in kinase buffer (50 mM Hepes buffer pH 7.4, 20 mM MgCl2, 0.1 mM MnCl2 and 0.2 mM Na3VO4). Test compounds were reconstituted in 100% DMSO and added to the reaction to give a final DMSO concentration of 5%. Reactions were initiated by the addition 0.5 ng of purified protein. Following a ten minute incubation at 25° C., the reactions were washed four times with PBS containing 0.05% Tween-20. 100 μl of a monoclonal anti-phosphotyrosine antibody-peroxidase conjugate was diluted 1:10000 in PBS-Tween-20 and added to the wells for 30 minutes. Following four washes with PBS-Tween-20, 100 μl of 0-Phenylenediamine Dihydrochloride in Phosphate-citrate buffer, containing urea hydrogen peroxide, was added to the wells for 7 minutes as a colorimetric substrate for the peroxidase. The reaction was terminated by the addition of 100 μl of 2.5N H2SO4 to each well and read using a microplate ELISA reader set at 492 nm. IC50 values for compound inhibition were calculated directly from graphs of optical density (arbitrary units) versus compound concentration following subtraction of blank values.

For assay [3], the system named is VEGF-induced EBD extravasation. Kind of assay: VEGF-induced Dermal Extravasation in Guinea Pig (Miles Assay). The assay is classed as in vivo. Conditions: for in-vivo activity (Miles Assay, Table 3): oral administration; for Miles Assay % inhibition: single oral dose 75 mg/kg, vehicle PEG400. Here is the method: VEGF-induced Dermal Extravasation in Guinea Pig (Miles Assay). Male Hartley guinea pigs (300-600 g) were anesthetized with isofluorane, sheared, and given a single oral dose of drug or the respective vehicle. Ten minutes prior to the end of drug treatment, guinea pigs were anesthetized with isofluorane, and 0.5% Evans blue dye (EBD) in PBS (13-15 mg/kg dose of EBD) was injected intravenously. After 5 minutes, triplicate intradermal injections of 100 ng rhVEGF165 in 100 μl PBS and of 100 μl PBS alone were administered on the flank. After 20 minutes, each animal was euthanized with Pentosol, and the skin containing the intradermal injection sites was removed for image analysis.
Using an analog video camera coupled to a PC, an image of each trans-illuminated skin sample was captured, and the integrated optical density of each injection site was measured using ImagePro 4. For each skin sample, the difference between the mean optical density of the VEGF sites and mean optical density of the PBS sites is the measure of VEGF-induced EBD extravasation in that animal. These measured values were averaged per study group to determine the mean VEGF-induced EBD extravasation for each experimental condition, and the group means were then compared to assess inhibition of VEGF-induced EBD extravasation in the drug-treated groups relative to the vehicle-treated controls.

T1 sequence (P35968 786-1356 limits assumed): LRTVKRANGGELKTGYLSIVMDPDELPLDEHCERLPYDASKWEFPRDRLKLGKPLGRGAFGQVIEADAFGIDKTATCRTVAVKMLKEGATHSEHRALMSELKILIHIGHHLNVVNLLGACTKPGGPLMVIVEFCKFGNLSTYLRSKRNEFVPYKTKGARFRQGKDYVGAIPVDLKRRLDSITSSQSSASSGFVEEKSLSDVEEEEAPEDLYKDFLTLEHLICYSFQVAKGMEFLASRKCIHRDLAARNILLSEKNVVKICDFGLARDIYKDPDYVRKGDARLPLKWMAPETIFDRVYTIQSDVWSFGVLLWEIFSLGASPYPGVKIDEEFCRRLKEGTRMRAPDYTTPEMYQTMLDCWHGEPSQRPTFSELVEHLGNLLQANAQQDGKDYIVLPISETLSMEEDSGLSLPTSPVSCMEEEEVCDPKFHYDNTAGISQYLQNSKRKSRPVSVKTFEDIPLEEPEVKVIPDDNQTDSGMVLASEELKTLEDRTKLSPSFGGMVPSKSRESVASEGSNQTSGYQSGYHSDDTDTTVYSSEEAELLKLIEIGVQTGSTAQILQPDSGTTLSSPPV

In the case of `Cc1cc(NC=C2C(=O)Nc3ccc(F)cc32)n[nH]1` [Example 26, 5-Fluoro-3-[(5-methyl-1H-pyrazol-3-ylamino)-methylene]-1,3-dihydro-indol-2-one], the figures for the IC50 in assay [1], in assay [1] (Homo sapiens) and in assay [2] were 520 nM, not above 1000 nM and 330 nM, respectively. In assay [1] (Homo sapiens), the inhibition at 10 µM is 97.1%. In addition, in assay [3], the “in-vivo activity (Miles Assay, Table 3)” value is reported as “significant in-vivo activity”. Also, the “Miles Assay % inhibition” value in assay [3] is listed as 100%.

As to `Cc1cccc2c1C(=CNc1cc[nH]n1)C(=O)N2` [Example 6, 4-Methyl-3-[(1H-pyrazol-3-ylamino)-methylene]-1,3-dihydro-indol-2-one], the IC50 is 1070 nM in assay [1], not above 1000 nM in assay [1] (Homo sapiens) and 500 nM in assay [2]. In addition, the inhibition at 10 µM in assay [1] (Homo sapiens) stood at 97.6%. The “in-vivo activity (Miles Assay, Table 3)” value in assay [3] was “significant in-vivo activity”. Besides, in assay [3], the “Miles Assay % inhibition” value was 83%.

The values are drawn from patent publication US6559173B1, “3-(heteroarylamino)methylene-1,3-dihydro-2H-indol-2-ones as kinase inhibitors” (Allergan, Inc., priority 2001, dated 2003).
